Assay results published in the NIST ThermoML archive (doi:10.1016/j.fluid.2017.12.026).
Where “and” joins values, the source holds several entries; their conditions need not be identical. Identical values can stand only once.

Details: Coaxial cylinder method

CCCCC [pentane]
Details	thermal conductivity
465.4 K, 9497 kPa, Liquid	0.07785 W/m/K
465.4 K, 9610 kPa, Liquid	0.07785 W/m/K
465.4 K, 9891 kPa, Liquid	0.07814 W/m/K
466.27 K, 100 kPa, Gas	0.03453 W/m/K
466.28 K, 100 kPa, Gas	0.03449 W/m/K
466.29 K, 100 kPa, Gas	0.03442 W/m/K
466.3 K, 100 kPa, Gas	0.03439 W/m/K
466.7 K, 100 kPa, Gas	0.03462 W/m/K
467.36 K, 11000 kPa, Liquid	0.08067 W/m/K
467.36 K, 11500 kPa, Liquid	0.08129 W/m/K
467.36 K, 12000 kPa, Liquid	0.08175 W/m/K
467.36 K, 13000 kPa, Liquid	0.08285 W/m/K
467.36 K, 13800 kPa, Liquid	0.08362 W/m/K
467.36 K, 15200 kPa, Liquid	0.08486 W/m/K
467.36 K, 16000 kPa, Liquid	0.08553 W/m/K
467.36 K, 16500 kPa, Liquid	0.08593 W/m/K
467.36 K, 17000 kPa, Liquid	0.08638 W/m/K
467.36 K, 17500 kPa, Liquid	0.08673 W/m/K
467.36 K, 18000 kPa, Liquid	0.08718 W/m/K
467.36 K, 18500 kPa, Liquid	0.0876 W/m/K
467.36 K, 19000 kPa, Liquid	0.08803 W/m/K
467.36 K, 19500 kPa, Liquid	0.08843 W/m/K
467.36 K, 20000 kPa, Liquid	0.08879 W/m/K
467.36 K, 20500 kPa, Liquid	0.08919 W/m/K
467.36 K, 21000 kPa, Liquid	0.08956 W/m/K
467.36 K, 21500 kPa, Liquid	0.08989 W/m/K
467.36 K, 22000 kPa, Liquid	0.09031 W/m/K
467.36 K, 22500 kPa, Liquid	0.09068 W/m/K
467.36 K, 23000 kPa, Liquid	0.0911 W/m/K
467.36 K, 23500 kPa, Liquid	0.09141 W/m/K
467.36 K, 24000 kPa, Liquid	0.0918 W/m/K
467.36 K, 24500 kPa, Liquid	0.09219 W/m/K
467.36 K, 25000 kPa, Liquid	0.09258 W/m/K
467.36 K, 25500 kPa, Liquid	0.09286 W/m/K
467.36 K, 26000 kPa, Liquid	0.09318 W/m/K
467.36 K, 26500 kPa, Liquid	0.09358 W/m/K
467.36 K, 27000 kPa, Liquid	0.0939 W/m/K
467.36 K, 27500 kPa, Liquid	0.09419 W/m/K
467.36 K, 28000 kPa, Liquid	0.09456 W/m/K
467.36 K, 28500 kPa, Liquid	0.09489 W/m/K
467.36 K, 29000 kPa, Liquid	0.09522 W/m/K
467.36 K, 29500 kPa, Liquid	0.09552 W/m/K
467.36 K, 30000 kPa, Liquid	0.09583 W/m/K
467.36 K, 30500 kPa, Liquid	0.09613 W/m/K
467.36 K, 31000 kPa, Liquid	0.09634 W/m/K
467.36 K, 31280 kPa, Liquid	0.09643 W/m/K
467.36 K, 31300 kPa, Liquid	0.09647 W/m/K
467.36 K, 31340 kPa, Liquid	0.09656 W/m/K
467.76 K, 100 kPa, Gas	0.03471 W/m/K
468.02 K, 100 kPa, Gas	0.03483 W/m/K
468.08 K, 100 kPa, Gas	0.03457 W/m/K
468.57 K, 100 kPa, Gas	0.03481 W/m/K
469.93 K, 100 kPa, Gas	0.03492 W/m/K
470.04 K, 2036 kPa, Gas	0.03754 W/m/K
470.07 K, 100 kPa, Gas	0.03498 W/m/K
470.2 K, 100 kPa, Gas	0.03485 W/m/K
471.68 K, 100 kPa, Gas	0.03523 W/m/K
472.17 K, 1697 kPa, Gas	0.03753 W/m/K
472.21 K, 100 kPa, Gas	0.03519 W/m/K
472.84 K, 100 kPa, Gas	0.03528 W/m/K
472.97 K, 100 kPa, Gas	0.03526 W/m/K
473.01 K, 100 kPa, Gas	0.03533 W/m/K
473.86 K, 100 kPa, Gas	0.03563 W/m/K
474.81 K, 100 kPa, Gas	0.03571 W/m/K
475.4 K, 100 kPa, Gas	0.03567 W/m/K
475.7 K, 10375 kPa, Gas	0.07726 W/m/K
475.7 K, 17575 kPa, Gas	0.0849 W/m/K
475.7 K, 19975 kPa, Gas	0.08712 W/m/K
475.7 K, 24775 kPa, Gas	0.0897 W/m/K
475.7 K, 29975 kPa, Gas	0.09365 W/m/K
475.7 K, 40275 kPa, Gas	0.09992 W/m/K
475.7 K, 48475 kPa, Gas	0.1033 W/m/K
476.21 K, 100 kPa, Gas	0.03593 W/m/K
478.08 K, 100 kPa, Gas	0.03587 W/m/K
478.2 K, 100 kPa, Gas	0.03595 W/m/K
478.5 K, 2001 kPa, Gas	0.03835 W/m/K
478.5 K, 10175 kPa, Gas	0.07793 W/m/K
478.5 K, 19775 kPa, Gas	0.08695 W/m/K
478.5 K, 20375 kPa, Gas	0.08696 W/m/K
478.5 K, 30175 kPa, Gas	0.09387 W/m/K
478.5 K, 32975 kPa, Gas	0.09616 W/m/K
478.5 K, 40175 kPa, Gas	0.1002 W/m/K
478.5 K, 46675 kPa, Gas	0.1028 W/m/K
479.9 K, 100 kPa, Gas	0.03642 W/m/K
482.02 K, 100 kPa, Gas	0.03645 W/m/K
482.02 K, 2180 kPa, Gas	0.03995 W/m/K
484.5 K, 7555 kPa, Gas	0.07149 W/m/K
484.5 K, 10055 kPa, Gas	0.0768 W/m/K
484.5 K, 19975 kPa, Gas	0.08666 W/m/K
484.5 K, 25175 kPa, Gas	0.09003 W/m/K
484.5 K, 27775 kPa, Gas	0.09214 W/m/K
485.84 K, 1820 kPa, Gas	0.03954 W/m/K
485.84 K, 1830 kPa, Gas	0.03953 W/m/K
485.84 K, 1886 kPa, Gas	0.03962 W/m/K
485.84 K, 2000 kPa, Gas	0.04018 W/m/K
485.84 K, 2180 kPa, Gas	0.04056 W/m/K
485.84 K, 2260 kPa, Gas	0.04079 W/m/K
485.84 K, 2280 kPa, Gas	0.04036 W/m/K
485.84 K, 2300 kPa, Gas	0.04075 W/m/K
485.84 K, 2560 kPa, Gas	0.04155 W/m/K
487.28 K, 1820 kPa, Gas	0.03982 W/m/K
487.3 K, 100 kPa, Gas	0.03739 W/m/K
497.3 K, 988 kPa, Gas	0.03935 W/m/K
497.3 K, 2518 kPa, Gas	0.04191 W/m/K
497.3 K, 9975 kPa, Gas	0.07419 W/m/K
497.3 K, 19975 kPa, Gas	0.08618 W/m/K
497.3 K, 30375 kPa, Gas	0.09354 W/m/K
497.3 K, 40275 kPa, Gas	0.09941 W/m/K
497.3 K, 49575 kPa, Gas	0.1037 W/m/K
497.65 K, 100 kPa, Gas	0.03875 W/m/K
500.96 K, 100 kPa, Gas	0.03915 W/m/K
523 K, 988 kPa, Gas	0.0425 W/m/K
523 K, 2508 kPa, Gas	0.04516 W/m/K
523 K, 17975 kPa, Gas	0.0821 W/m/K
523 K, 20175 kPa, Gas	0.08444 W/m/K
523 K, 25475 kPa, Gas	0.0885 W/m/K
523 K, 30475 kPa, Gas	0.09129 W/m/K
523 K, 40175 kPa, Gas	0.09665 W/m/K
523 K, 43475 kPa, Gas	0.09824 W/m/K
523 K, 49975 kPa, Gas	0.1014 W/m/K
526.4 K, 2200 kPa, Gas	0.04473 W/m/K
526.4 K, 2300 kPa, Gas	0.0457 W/m/K
526.4 K, 2400 kPa, Gas	0.0457 W/m/K
526.4 K, 2500 kPa, Gas	0.0457 W/m/K
526.4 K, 2600 kPa, Gas	0.04565 W/m/K
526.4 K, 2700 kPa, Gas	0.0456 W/m/K
526.4 K, 2800 kPa, Gas	0.04599 W/m/K
526.4 K, 2900 kPa, Gas	0.0465 W/m/K
526.4 K, 3000 kPa, Gas	0.04712 W/m/K
526.4 K, 3300 kPa, Gas	0.04771 W/m/K
526.4 K, 3600 kPa, Gas	0.04853 W/m/K
526.4 K, 3700 kPa, Gas	0.04799 W/m/K
526.4 K, 3800 kPa, Gas	0.04888 W/m/K
526.54 K, 2200 kPa, Gas	0.04492 W/m/K
526.57 K, 100 kPa, Gas	0.04253 W/m/K
576.1 K, 100 kPa, Gas	0.04957 W/m/K
576.1 K, 988 kPa, Gas	0.05094 W/m/K
576.1 K, 2417 kPa, Gas	0.05148 W/m/K
576.1 K, 2508 kPa, Gas	0.05179 W/m/K
576.1 K, 4048 kPa, Gas	0.05495 W/m/K
576.1 K, 20475 kPa, Gas	0.08464 W/m/K
576.1 K, 22475 kPa, Gas	0.08627 W/m/K
576.1 K, 30275 kPa, Gas	0.09057 W/m/K
576.1 K, 30575 kPa, Gas	0.09 W/m/K
576.1 K, 40175 kPa, Gas	0.09709 W/m/K
576.1 K, 40975 kPa, Gas	0.09601 W/m/K
576.1 K, 51275 kPa, Gas	0.1023 W/m/K
618.2 K, 7584 kPa, Gas	0.06457 W/m/K
618.2 K, 9985 kPa, Gas	0.06826 W/m/K
618.2 K, 11475 kPa, Gas	0.07159 W/m/K
618.2 K, 12945 kPa, Gas	0.07331 W/m/K
618.2 K, 12985 kPa, Gas	0.07397 W/m/K
618.2 K, 14975 kPa, Gas	0.07629 W/m/K
618.2 K, 18875 kPa, Gas	0.08227 W/m/K and 0.08277 W/m/K
621.2 K, 100 kPa, Gas	0.05581 W/m/K
621.2 K, 10375 kPa, Gas	0.06836 W/m/K
621.2 K, 15375 kPa, Gas	0.07737 W/m/K
621.2 K, 20275 kPa, Gas	0.08383 W/m/K
621.2 K, 22975 kPa, Gas	0.08581 W/m/K
621.2 K, 30175 kPa, Gas	0.09232 W/m/K
621.2 K, 39275 kPa, Gas	0.09614 W/m/K
621.2 K, 40375 kPa, Gas	0.09714 W/m/K
621.2 K, 49975 kPa, Gas	0.1015 W/m/K
621.2 K, 53675 kPa, Gas	0.1031 W/m/K
621.2 K, 53975 kPa, Gas	0.103 W/m/K
